We go through one compound from patent US9556153B1, “JAK1 inhibitors” (Eli Lilly and Company, priority 2015, dated 2017).

In experiment [1] the target is T1, JAK3 (Homo sapiens, UniProt P52333).
T1 construct: purchased Invitrogen
T1 sequence (P52333 1-1124): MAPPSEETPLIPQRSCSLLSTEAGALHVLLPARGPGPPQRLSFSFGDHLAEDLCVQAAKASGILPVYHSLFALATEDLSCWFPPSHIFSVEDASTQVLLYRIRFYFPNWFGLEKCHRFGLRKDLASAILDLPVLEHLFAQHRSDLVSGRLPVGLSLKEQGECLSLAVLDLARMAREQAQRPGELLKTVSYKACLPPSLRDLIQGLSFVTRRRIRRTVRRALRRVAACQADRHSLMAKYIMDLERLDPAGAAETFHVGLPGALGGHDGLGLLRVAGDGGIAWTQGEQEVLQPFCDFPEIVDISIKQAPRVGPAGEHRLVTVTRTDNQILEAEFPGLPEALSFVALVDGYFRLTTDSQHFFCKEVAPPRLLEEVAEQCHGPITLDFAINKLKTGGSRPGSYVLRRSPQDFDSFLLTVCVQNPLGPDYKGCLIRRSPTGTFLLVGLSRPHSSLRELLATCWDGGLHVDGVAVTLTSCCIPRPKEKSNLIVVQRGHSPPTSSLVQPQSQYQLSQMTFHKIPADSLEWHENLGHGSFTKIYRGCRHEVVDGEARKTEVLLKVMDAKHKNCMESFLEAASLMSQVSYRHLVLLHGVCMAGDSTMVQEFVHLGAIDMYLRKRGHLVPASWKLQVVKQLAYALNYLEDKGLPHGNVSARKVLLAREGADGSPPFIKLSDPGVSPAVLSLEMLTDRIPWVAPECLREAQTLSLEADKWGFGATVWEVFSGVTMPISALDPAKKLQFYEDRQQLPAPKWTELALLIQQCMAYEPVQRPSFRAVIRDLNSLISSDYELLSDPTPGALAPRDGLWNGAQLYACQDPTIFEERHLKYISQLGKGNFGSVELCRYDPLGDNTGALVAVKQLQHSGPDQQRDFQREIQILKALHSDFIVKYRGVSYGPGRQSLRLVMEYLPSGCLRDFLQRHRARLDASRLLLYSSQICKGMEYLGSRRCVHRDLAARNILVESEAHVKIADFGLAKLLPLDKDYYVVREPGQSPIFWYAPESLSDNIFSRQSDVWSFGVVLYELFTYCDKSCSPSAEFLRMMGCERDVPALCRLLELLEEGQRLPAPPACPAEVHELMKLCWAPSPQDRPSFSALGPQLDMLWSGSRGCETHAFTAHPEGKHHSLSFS
As to the kind of experiment: JAK LanthaScreen Kinase Assay (TR-FRET), JAK3 in vitro enzyme assay. The class given is biochemical. To be noted: ATP 20.0 μM; n=6. From the text:
(§1) JAK1, JAK2 and JAK3 In Vitro Enzyme Assays
(§2) The JAK LanthaScreen™ Kinase Assay (Invitrogen) is used to determine the ability of test compounds to inhibit JAK1, JAK2 and JAK3 kinase activity. These are TR-FRET assay formats that use long-lifetime terbium labeled antibody as the donor species and GFP-STAT1 as the acceptor species. Use the TR-FRET ratio to monitor JAK kinase activity where an increase in phosphorylation of the GFP-STAT1 results in an increase in the TR-FRET ratio. Perform the kinase reaction using a 12.5 μl reaction volume in shallow black 384-well Proxiplate. Add reagents to obtain final reaction conditions of […] HEPES pH, 1.76 mM Triton X-100, ATP (20.0 μM for JAK1 and JAK3 or 5 μM for JAK2) enzyme assays, 10.0 mM MgCl2, 1 mM EGTA and 0.01% Brij-35, 0.05 mM GFP-STAT1, 14 nM JAK1 enzyme for JAK1, 1.0 nM for JAK2 or 2.5 nM for JAK3 enzyme assays, and 4% DMSO and serial dilutions of test compound (diluted 1:3 from 20,000 to 1 nM). Following ATP/GFP-STAT1 addition, centrifuge the assay plates for 1 minute at 1000 revolutions per minute (RPM). Allow the plates to incubate at RT for 60 minutes and then add 12.5 μl of a stopping buffer containing 20 mM EDTA, 2 nM Terbium-anti-phosphorylated Signal Transducers and Activators of Transcription [phosphorylation Tyrosine 701 amino acid] […]
(In general: Time-resolved FRET reads energy transfer from a long-lived donor to a nearby acceptor.)

For experiment [2], the system named is HCC827 xenograft tumor. As to the kind of experiment: Efficacy Study in HCC827 Xenograft Tumor Model. The note with it: oral gavage, 28 days, HCC827 xenograft mice. The class given is in vivo, mouse. Here is the method: Efficacy Study in HCC827 Xenograft Tumor Model
The purpose of this assay is to measure the ability of compounds to inhibit tumor growth in the HCC827 xenograft mouse model. Grow HCC827 cells (ATCC# CRL-2868, Lot#59392891) according to ATCC specifications at the lowest possible passage number available. Culture cells and maintain in RPMI-1640 supplemented with 10% FBS and incubate at 37° C. in 5% CO2. Harvest cells from flasks using TryPLE, rinse twice in DPBS, resuspend in HBSS, and mix with BD Biosciences basement membrane matrix (MATRIGEL®) to cell suspension to achieve a 1:1 cell/matrix ratio yielding an inoculation volume of 0.2 ml cell/matrix suspension containing 5e^6 cells. Maintain cell suspensions on ice throughout the inoculation procedure and start implantations within one hour after cell culture harvest. Administer implantations subcutaneously in the right rear flank of female CB17 SCID mice obtained from Harlan (18-20 g). Feed mice Harlan Teklad Protein Extruded 2920X ad libitum and provide water with the rack watering system. Allow the implanted tumor cells to grow as a solid tumor and measure twice a week along with body weight beginning the seventh day after implantation. Determine tumor volumes using the calculation: 0.536*L*W^2. After tumor volume reaches approximately 150-200 mm^3, randomize animals and place into groups containing 5-8 animals each. Formulate the compounds in 1% HEC vehicle containing 0.25% Tween 80 and 0.05% antifoam with 1.1 molar equivalent of methanesulfonic acid to form an in situ salt (1.1 mL of 1N methanesulfonic acid per (insert molecular weight) mg of compound). Store test compound at RT. Formulate compounds once per week, and store at RT. […] Calculate doses based on the most recent group mean body weight. Administer compounds by oral gavage for 28 days either BID or QD depending on dosage.

The target in experiment [3] is JAK2 (Homo sapiens, UniProt O60674). Briefly: JAK LanthaScreen Kinase Assay (TR-FRET), JAK2 in vitro enzyme assay. Also on record: purchased Invitrogen. The note with it: ATP 5 μM; n=6. The class given is biochemical.
JAK2, sequence (O60674 whole entry): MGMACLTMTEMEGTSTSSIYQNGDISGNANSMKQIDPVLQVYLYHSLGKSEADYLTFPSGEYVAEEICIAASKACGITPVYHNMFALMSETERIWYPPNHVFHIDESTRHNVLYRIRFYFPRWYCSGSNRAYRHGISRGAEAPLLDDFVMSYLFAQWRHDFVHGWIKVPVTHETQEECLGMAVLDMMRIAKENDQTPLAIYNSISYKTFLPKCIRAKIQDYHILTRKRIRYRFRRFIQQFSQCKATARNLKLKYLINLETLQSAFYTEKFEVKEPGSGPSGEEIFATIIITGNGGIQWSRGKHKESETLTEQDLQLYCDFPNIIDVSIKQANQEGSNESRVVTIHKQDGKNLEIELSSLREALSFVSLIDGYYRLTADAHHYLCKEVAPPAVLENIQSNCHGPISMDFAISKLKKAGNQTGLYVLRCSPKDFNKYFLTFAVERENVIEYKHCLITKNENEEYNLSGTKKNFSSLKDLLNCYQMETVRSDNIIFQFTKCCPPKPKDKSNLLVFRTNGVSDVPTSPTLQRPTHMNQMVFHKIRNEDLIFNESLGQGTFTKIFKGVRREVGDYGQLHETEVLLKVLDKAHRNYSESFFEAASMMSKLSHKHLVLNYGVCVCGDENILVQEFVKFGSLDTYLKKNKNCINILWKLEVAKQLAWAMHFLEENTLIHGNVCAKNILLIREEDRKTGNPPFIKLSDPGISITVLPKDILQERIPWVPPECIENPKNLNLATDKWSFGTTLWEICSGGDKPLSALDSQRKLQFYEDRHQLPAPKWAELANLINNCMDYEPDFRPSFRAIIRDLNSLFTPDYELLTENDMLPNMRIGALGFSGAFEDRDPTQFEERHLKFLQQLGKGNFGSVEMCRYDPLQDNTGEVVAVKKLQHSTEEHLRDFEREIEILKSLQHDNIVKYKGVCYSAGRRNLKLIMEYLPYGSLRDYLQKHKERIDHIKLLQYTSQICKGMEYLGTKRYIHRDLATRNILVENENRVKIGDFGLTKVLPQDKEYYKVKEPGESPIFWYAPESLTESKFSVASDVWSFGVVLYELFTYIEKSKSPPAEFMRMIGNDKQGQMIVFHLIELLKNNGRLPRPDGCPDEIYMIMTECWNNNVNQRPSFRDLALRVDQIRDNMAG
Text: as §1, §2

A word on the IC50: it is the point on the concentration scale where inhibition reaches its midpoint. Read a low IC50 as higher potency.

Structures are written as SMILES.

As to `Cc1cc(Nc2cc(O[C@H]3CC[C@@H](NC[C@@H](O)C(F)(F)F)CC3)cc3c2ncn3C)nn1C` [Example 1, (2R)-3-{[cis-4-({4-[(1,5-Dimethyl-1H-pyrazol-3-yl)amino]-1-methyl-1H-benzimidazol-6-yl}oxy)cyclohexyl]amino}-1,1,1-trifluoropropan-2-ol], the figures for the IC50 in experiment [1] and in experiment [3] were 1.91 ± 0.786 µM and 0.557 ± 0.337 µM, respectively. In addition, the tumor growth inhibition in experiment [2] (30 mg/kg BID) is 31%. Also, the tumor regression in experiment [2] (60 mg/kg BID) and in experiment [2] (120 mg/kg QD) was 22% each time.
